Laboratory results as given in patent publication US11472803B2, “7-substituted 1-aryl-naphthyridine-3-carboxylic acid amides and use thereof” (Bayer Aktiengesellschaft, priority 2016, dated 2022).

Target: T1, human M2 receptor (Homo sapiens, UniProt P08172)
T1 construct: expressed in transfected cells; host or cells: CHO-DUKX (CHO-DUKX-M2-GIRK)
T1 sequence (P08172 1-466): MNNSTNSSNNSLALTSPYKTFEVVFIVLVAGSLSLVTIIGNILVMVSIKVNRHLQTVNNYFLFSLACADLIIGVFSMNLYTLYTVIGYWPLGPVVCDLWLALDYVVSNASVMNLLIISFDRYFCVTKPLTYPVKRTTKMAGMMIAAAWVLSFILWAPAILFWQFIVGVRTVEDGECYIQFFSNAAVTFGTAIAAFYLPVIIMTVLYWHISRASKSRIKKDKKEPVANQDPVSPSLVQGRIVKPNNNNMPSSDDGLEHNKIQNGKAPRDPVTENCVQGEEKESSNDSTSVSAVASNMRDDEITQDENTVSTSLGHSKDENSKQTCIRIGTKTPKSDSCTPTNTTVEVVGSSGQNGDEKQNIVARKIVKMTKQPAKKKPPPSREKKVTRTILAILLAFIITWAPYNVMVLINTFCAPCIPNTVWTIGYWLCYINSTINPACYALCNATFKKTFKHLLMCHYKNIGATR
Experiment: Functional M2-GIRK1/4 activation test: allosteric potency (EC50) and efficiency at EC20 acetylcholine
Assay type: cell-based
Settings: CHO-DUKX-M2-GIRK cells; for EC50: voltage-sensitive dye, acetylcholine at EC20, in some cases mean of two or more determinations
Excerpt: The binding of orthosteric agonists (endogenous ligand: acetylcholine) to the M2 receptor leads to receptor activation or a change in conformation of the receptor in the manner of a shift in equilibrium in favour of the active receptor conformation.
The agonist-induced change in conformation of the M2 receptor results in a Gαi protein activation. […] Under physiological conditions, the result is then a selective efflux of potassium from the cell along the electrochemical gradient. […] The extent of hyperpolarization can therefore be regarded as a measure of the activation of the M2 receptor.
The test cell used is a recombinant CHO-DUKX cell line which has been stably transfected with cDNA coding for the human M2 receptor and with cDNA coding for both GIRK1/4 subunits (CHO-DUKX-M2-GIRK). The transmembrane potential, or the relative changes in the transmembrane potential as a function of substance addition or M2 activation, is determined by means of a voltage-sensitive dye (FLIPR Membrane Potential Assay Kit Blue, Molecular Devices #R8034) and the measurement of cell fluorescence using a proprietary fluorescence imaging instrument.
The sowing medium consisted of MEM alpha medium (supplemented with 5% PCS, 2% Glutamax, no genticin).
For the particular measurement, the medium was removed and the cells were laden with the volt-age-sensitive dye for at least 6 min at room temperature (30 μl of loading buffer per 384-well). This was followed, in a first measurement, by the determination of the fluorescence for the resting transmembrane potential for a period of 5 sec. Thereafter, 10 μl in each case of the test substances diluted in loading buffer were added, followed by a second measurement to determine the transmembrane potential for a period of 50 sec in 1 sec increments. Finally, the cells were admixed with 10 μl of agonist solution (acetylcholine dissolved in loading buffer). Acetylcholine was used at the concentration corresponding to the EC20, which had been determined in a preliminary test. The M2-mediated GIRK1/4 activation or hyperpolarization was then monitored in a third measurement over a period of 60 sec. The EC50 value (degree of allosteric potency of test compound) and the efficiency (measure of the boosting of the acetylcholine effect at an EC20 acetylcholine concentration) were determined with the aid of a 4-parameter logistic function (Hill function).

[1] = boosting of the acetylcholine effect at EC20 acetylcholine concentration

SMILES	EC50	Emax [1]	Efficiency [1]
CC(C)(NC(=O)c1cn(-c2c(F)cc(F)cc2F)c2nc(N3CC[C@H](O)C3)c(F)cc2c1=O)C(F)(F)F [Example 125, 6-Fluoro-7-[(3S)-3-hydroxypyrrolidin-1-yl]-4-oxo-N-(1,1,1-trifluoro-2-methylpropan-2-yl)-1-(2,4,6-trifluorophenyl)-1,4-dihydro-1,8-naphthyridine-3-carboxamide]	12 nM	97%	–
O=C(N[C@@H](C1CC1)C(F)(F)F)c1cn(-c2c(F)cc(F)cc2Cl)c2nc(N3CC(CO)(CO)C3)c(F)cc2c1=O [Example 69, 7-[3,3-Bis(hydroxymethyl)azetidin-1-yl]-1-(2-chloro-4,6-difluorophenyl)-N-[(1S)-1-cyclopropyl-2,2,2-trifluoroethyl]-6-fluoro-4-oxo-1,4-dihydro-1,8-naphthyridine-3-carboxamide]	5.9 nM	100%	–
CC(NC(=O)c1cn(-c2ncc(F)cc2F)c2nc(N3C[C@@H](O)[C@H](O)C3)c(F)cc2c1=O)C(F)(F)C(F)(F)F (mixture of isomers) [Example 39, 1-(3,5-difluoropyridin-2-yl)-7-[(3R,4R)-3,4-dihydroxypyrrolidin-1-yl]-6-fluoro-4-oxo-N-[(2)-3,3,4,4,4-pentafluorobutan-2-yl]-1,4-dihydro-1,8-naphthyridine-3-carboxamide]	20.5 nM	100%	–
CC(C)(NC(=O)c1cn(-c2c(F)cc(F)cc2F)c2nc(N3CC[C@H](O)[C@@H]3CO)c(F)cc2c1=O)C(F)(F)C(F)(F)F [Example 193, 6-Fluoro-7-[(2S,3S)-3-hydroxy-2-(hydroxymethyl)pyrrolidin-1-yl]-4-oxo-N-(3,3,4,4,4-pentafluoro-2-methylbutan-2-yl)-1-(2,4,6-trifluorophenyl)-1,4-dihydro-1,8-naphthyridine-3-carboxamide]	32.5 nM	100%	–
CC(NC(=O)c1cn(-c2c(F)cc(F)cc2F)c2nc(N3CCCC(O)(CO)C3)c(F)cc2c1=O)C(F)(F)C(F)(F)F (centres unmarked) [Example 192, 6-Fluoro-7-[3-hydroxy-3-(hydroxymethyl)piperidin-1-yl]-4-oxo-N-[3,3,4,4,4-pentafluorobutan-2-yl]-1-(2,4,6-trifluorophenyl)-1,4-dihydro-1,8-naphthyridine-3-carboxamide]	128 nM	100%	–
CC(C)(NC(=O)c1cn(-c2c(F)cc(F)cc2F)c2nc(N3CCOCC3)c(F)cc2c1=O)C(F)(F)F [Example 149, 6-Fluoro-7-(morpholin-4-yl)-4-oxo-N-(1,1,1-trifluoro-2-methylpropan-2-yl)-1-(2,4,6-trifluorophenyl)-1,4-dihydro-1,8-naphthyridine-3-carboxamide]	21 nM	92%	–
O=C(NCC(F)(F)F)c1cn(-c2c(F)cc(F)cc2Cl)c2nc(N3C[C@@H](O)[C@H](O)C3)c(F)cc2c1=O (single isomer, unassigned) [Example 222]	550 nM	–	61%
CC(C)(NC(=O)c1cn(-c2ncc(F)cc2F)c2nc(N3CC[C@H](O)C3)c(F)cc2c1=O)C(F)(F)F [Example 154, 1-(3,5-Difluoropyridin-2-yl)-6-fluoro-7-[(3S)-3-hydroxypyrrolidin-1-yl]-4-oxo-N-(1,1,1-tri-fluoro-2-methylpropan-2-yl)-1,4-dihydro-1,8-naphthyridine-3-carboxamide]	97 nM	100%	–
CC(NC(=O)c1cn(-c2c(F)cc(F)cc2F)c2nc(N3CC(CO)(CO)C3)c(F)cc2c1=O)C(F)(F)C(F)(F)F (racemic) [Example 168, 7-[3,3-Bis(hydroxymethyl)azetidin-1-yl]-6-fluoro-4-oxo-N-[3,3,4,4,4-pentafluorobutan-2-yl]-1-(2,4,6-trifluorophenyl)-1,4-dihydro-1,8-naphthyridine-3-carboxamide]	4 nM	86%	–
CC[C@H](NC(=O)c1cn(-c2ncc(F)cc2F)c2nc(N3CC[C@H](O)C3)c(F)cc2c1=O)C(F)(F)F [Example 152, 1-(3,5-Difluoropyridin-2-yl)-6-fluoro-7-[(3S)-3-hydroxypyrrolidin-1-yl]-4-oxo-N-[(2S)-1,1,1-trifluorobutan-2-yl]-1,4-dihydro-1,8-naphthyridine-3-carboxamide]	53 nM	100%	–
CCC(C)(CC)NC(=O)c1cn(-c2c(F)cc(F)cc2F)c2nc(N3C[C@@H](O)[C@@H](O)C3)c(F)cc2c1=O [Example 78, 7-[(3R,4S)-3,4-Dihydroxypyrrolidin-1-yl]-6-fluoro-N-(3-methylpentan-3-yl)-4-oxo-1-(2,4,6-trifluorophenyl)-1,4-dihydro-1,8-naphthyridine-3-carboxamide]	2.8 nM	100%	–
CCC(COC(F)(F)F)NC(=O)c1cn(-c2c(F)cc(F)cc2F)c2nc(N3C[C@@H](O)[C@@H](O)C3)c(F)cc2c1=O (mixture of isomers) [Example 95, 7-[(3R,4S)-3,4-Dihydroxypyrrolidin-1-yl]-6-fluoro-4-oxo-N-[1-(trifluoromethoxy)butan-2-yl]-1-(2,4,6-trifluorophenyl)-1,4-dihydro-1,8-naphthyridine-3-carboxamide]	15.5 nM	100%	–
CN(C)c1nc2c(cc1F)c(=O)c(C(=O)NC(C)(C)C)cn2-c1c(F)cc(F)cc1F [Example 60, N-tert-Butyl-7-(dimethylamino)-6-fluoro-4-oxo-1-(2,4,6-trifluorophenyl)-1,4-dihydro-1,8-naphthyridine-3-carboxamide]	3.6 nM	100%	–
CC(C)(NC(=O)c1cn(-c2c(F)cc(F)cc2Cl)c2nc(N3C[C@@H](O)[C@H](O)C3)c(F)cc2c1=O)C(F)F (single isomer, unassigned) [Example 142]	39 nM	99%	–
O=C(NC(C1CC1)C(F)(F)C(F)(F)F)c1cn(-c2c(F)cc(F)cc2F)c2nc(N3CC4(COC4)C3)c(F)cc2c1=O (single isomer, unassigned) [Example 204, N-[1-cyclopropyl-2,2,3,3,3-pentafluoropropyl]-6-fluoro-7-(2-oxa-6-azaspiro[3.3]hept-6-yl)-4-oxo-1-(2,4,6-trifluorophenyl)-1,4-dihydro-1,8-naphthyridine-3-carboxamide]	17 nM	97%	–
O=C(N[C@@H](C1CC1)C(F)(F)F)c1cn(-c2c(F)cc(F)cc2F)c2nc(N3C[C@@H](O)CC3=O)c(F)cc2c1=O [Example 59, N-[(1S)-1-Cyclopropyl-2,2,2-trifluoroethyl]-6-fluoro-7-[(4S)-4-hydroxy-2-oxopyrrolidin-1-yl]-4-oxo-1-(2,4,6-trifluorophenyl)-1,4-dihydro-1,8-naphthyridine-3-carboxamide]	91.5 nM	97%	–
CC1(O)CN(c2nc3c(cc2F)c(=O)c(C(=O)NC(C2CC2)C2CC2)cn3-c2ncc(F)cc2F)C1 [Example 56, N-(Dicyclopropylmethyl)-1-(3,5-difluoropyridin-2-yl)-6-fluoro-7-(3-hydroxy-3-methylazetidin-1-yl)-4-oxo-1,4-dihydro-1,8-naphthyridine-3-carboxamide]	35 nM	100%	–
CC[C@H](NC(=O)c1cn(-c2c(F)cc(F)cc2F)c2nc(N3CCOCC3)c(F)cc2c1=O)C(F)(F)F [Example 151, 6-Fluoro-7-(morpholin-4-yl)-4-oxo-N-[(2S)-1,1,1-trifluorobutan-2-yl]-1-(2,4,6-trifluoro-phenyl)-1,4-dihydro-1,8-naphthyridine-3-carboxamide]	24 nM	100%	–
CC(C)(NC(=O)c1cn(-c2c(F)cc(F)cc2F)c2nc(N3C[C@@H](O)[C@@H](O)C3)c(F)cc2c1=O)C(F)(F)F [Example 124, 7-[(3R,4S)-3,4-Dihydroxypyrrolidin-1-yl]-6-fluoro-4-oxo-N-(1,1,1-trifluoro-2-methylpropan-2-yl)-1-(2,4,6-trifluorophenyl)-1,4-dihydro-1,8-naphthyridine-3-carboxamide]	18 nM	100%	–
